Data taken from ChEMBL document CHEMBL1201862, “PubChem BioAssay data set” (2004).
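1) Cells in 96-well plates. 2) Compound, 48 h, 5 concentrations. 3) Linear interpolation between surrounding doses. 4) Unreached endpoint = highest concentration. GI50 = concentration required for 50% inhibition of growth.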 The source made the active and inactive calls. Rule as the data show it: active = GI50 up to about 1.1 µM and inactive = higher.

Key:
Experiment in all cases: NCI-60 cell line screen, 48 h
SK-MEL-2 = tested on: SK-MEL-2
SF-539 = tested on: SF-539
NCI-H460 = tested on: NCI-H460
NCI-H522 = tested on: NCI-H522
HOP-62 = tested on: HOP-62
RPMI-8226 = tested on: RPMI-8226
DMS-273 = tested on: DMS-273
UO-31 = tested on: UO-31
KM-20L2 = tested on: KM-20L2
NCI-H226 = tested on: NCI-H226
LOX IMVI = tested on: LOX IMVI
SN12C = tested on: SN12C
RXF 631 = tested on: RXF 631
OVCAR-3 = tested on: OVCAR-3
M19-MEL = tested on: M19-MEL
KM12 = tested on: KM12
HT-29 = tested on: HT-29
SNB-19 = tested on: SNB-19
HCT-116 = tested on: HCT-116
LXFL 529 = tested on: LXFL 529
SNB-75 = tested on: SNB-75
DMS-114 = tested on: DMS-114
MOLT-4 = tested on: MOLT-4
M14 = tested on: M14
SW-620 = tested on: SW-620
HCC 2998 = tested on: HCC 2998
SK-MEL-28 = tested on: SK-MEL-28
K562 = tested on: K562
SF-268 = tested on: SF-268
SK-OV-3 = tested on: SK-OV-3
OVCAR-8 = tested on: OVCAR-8
IGROV-1 = tested on: IGROV-1
OVCAR-5 = tested on: OVCAR-5
HCT-15 = tested on: HCT-15
Malme-3M = tested on: Malme-3M
A549 = tested on: A549
SF-295 = tested on: SF-295
UACC-257 = tested on: UACC-257
U-251 = tested on: U-251
UACC-62 = tested on: UACC-62
DLD-1 = tested on: DLD-1
XF498 = tested on: XF498
A498 = tested on: A498
SR = tested on: SR
ACHN = tested on: ACHN
CAKI-1 = tested on: CAKI-1
786-0 = tested on: 786-0
EKVX = tested on: EKVX
OVCAR-4 = tested on: OVCAR-4
SK-MEL-5 = tested on: SK-MEL-5
NCI-H23 = tested on: NCI-H23
TK-10 = tested on: TK-10
COLO 205 = tested on: COLO 205
SNB-78 = tested on: SNB-78
CCRF-CEM = tested on: CCRF-CEM
RXF 393 = tested on: RXF 393

## CCOC(=O)C1=C(C)N(NC(N)=O)C2(N)N(NC(N)=O)C(C)=C(C(=O)OCC)C12C#N (stereo not given)
SK-MEL-2
  GI50: > 100 µM (inactive)
SF-539
  GI50: > 100 µM (inactive)
NCI-H460
  GI50: > 100 µM (inactive)
NCI-H522
  GI50: > 100 µM (inactive)
HOP-62
  GI50: > 100 µM (inactive)
RPMI-8226
  GI50: > 100 µM (inactive)
DMS-273
  GI50: > 100 µM (inactive)
UO-31
  GI50: > 100 µM (inactive)
KM-20L2
  GI50: > 100 µM (inactive)
NCI-H226
  GI50: > 100 µM (inactive)
LOX IMVI
  GI50: > 100 µM (inactive)
SN12C
  GI50: > 100 µM (inactive)
RXF 631
  GI50: > 100 µM (inactive)
OVCAR-3
  GI50: > 100 µM (inactive)
M19-MEL
  GI50: > 100 µM (inactive)
KM12
  GI50: > 100 µM (inactive)
HT-29
  GI50: > 100 µM (inactive)
SNB-19
  GI50: > 100 µM (inactive)
HCT-116
  GI50: > 100 µM (inactive)
LXFL 529
  GI50: > 100 µM (inactive)
SNB-75
  GI50: > 100 µM (inactive)
DMS-114
  GI50: > 100 µM (inactive)
MOLT-4
  GI50: > 100 µM (inactive)
M14
  GI50: > 100 µM (inactive)
SW-620
  GI50: > 100 µM (inactive)
HCC 2998
  GI50: > 100 µM (inactive)
SK-MEL-28
  GI50: > 100 µM (inactive)
K562
  GI50: > 100 µM (inactive)
SF-268
  GI50: > 100 µM (inactive)
SK-OV-3
  GI50: > 100 µM (inactive)
OVCAR-8
  GI50: > 100 µM (inactive)
IGROV-1
  GI50: > 100 µM (inactive)
OVCAR-5
  GI50: > 100 µM (inactive)
HCT-15
  GI50: > 100 µM
Malme-3M
  GI50: > 100 µM (inactive)
A549
  GI50: > 100 µM (inactive)
SF-295
  GI50: > 100 µM (inactive)
UACC-257
  GI50: > 100 µM (inactive)
U-251
  GI50: > 100 µM (inactive)
UACC-62
  GI50: > 100 µM (inactive)
DLD-1
  GI50: > 100 µM (inactive)
XF498
  GI50: > 100 µM (inactive)
A498
  GI50: > 100 µM (inactive)
SR
  GI50: > 100 µM (inactive)
ACHN
  GI50: > 100 µM (inactive)
CAKI-1
  GI50: > 100 µM (inactive)
786-0
  GI50: > 100 µM (inactive)
EKVX
  GI50: > 100 µM (inactive)
OVCAR-4
  GI50: > 100 µM (inactive)
SK-MEL-5
  GI50: > 100 µM (inactive)

## O=C1C2c3[nH]c4ccccc4c3C3CCCCCCC3C2C(=O)N1c1ccccc1 (stereo not given)
NCI-H23
  GI50: 21 µM (inactive)
SF-539
  GI50: 12 µM (inactive)
NCI-H460
  GI50: 4.91 µM (inactive)
RPMI-8226
  GI50: 13.4 µM (inactive)
DMS-273
  GI50: 11.1 µM (inactive)
LOX IMVI
  GI50: 5 µM (inactive)
TK-10
  GI50: 12 µM (inactive)
SN12C
  GI50: 6.03 µM (inactive)
RXF 631
  GI50: 4.71 µM (inactive)
OVCAR-3
  GI50: 4.35 µM (inactive)
M19-MEL
  GI50: 10.9 µM (inactive)
COLO 205
  GI50: 7.64 µM (inactive)
KM12
  GI50: 33.6 µM (inactive)
SNB-78
  GI50: 13.2 µM (inactive)
HT-29
  GI50: 19.9 µM (inactive)
LXFL 529
  GI50: 12.9 µM (inactive)
SNB-75
  GI50: 2.23 µM (inactive)
DMS-114
  GI50: 4.71 µM (inactive)
MOLT-4
  GI50: > 10 µM (inactive)
M14
  GI50: 6.85 µM (inactive)
SW-620
  GI50: 8.61 µM (inactive)
HCC 2998
  GI50: 12.3 µM (inactive)
SK-MEL-28
  GI50: 14.6 µM (inactive)
K562
  GI50: 4.52 µM (inactive)
SF-268
  GI50: 21.6 µM (inactive)
SK-OV-3
  GI50: 2.44 µM (inactive)
OVCAR-8
  GI50: 4.32 µM (inactive)
IGROV-1
  GI50: > 10 µM (inactive)
HCT-15
  GI50: 22.3 µM
Malme-3M
  GI50: 3.33 µM (inactive)
A549
  GI50: 8.65 µM (inactive)
SF-295
  GI50: 2.91 µM (inactive)
U-251
  GI50: 4.46 µM (inactive)
UACC-62
  GI50: 32.9 µM (inactive)
DLD-1
  GI50: > 10 µM (inactive)
XF498
  GI50: 1.92 µM (inactive)
A498
  GI50: 15.5 µM (inactive)
SR
  GI50: 14.9 µM (inactive)
CCRF-CEM
  GI50: 10.2 µM (inactive)
ACHN
  GI50: 8.24 µM (inactive)
RXF 393
  GI50: 7.74 µM (inactive)
786-0
  GI50: 8.67 µM (inactive)
EKVX
  GI50: 24.9 µM (inactive)
OVCAR-4
  GI50: 3.87 µM (inactive)
SK-MEL-5
  GI50: 33 µM (inactive)
